In one data set the test system is HCT-15 (human colon). As to the kind of experiment: In vitro antitumor effect against human tumor cell lines, SRB assay. The following applies: HCT 15 cells, 48 hours with drug. Type of data set: cell-based. As to the method: (§1) Experimental 1 : In vitro antitumor effect against human tumor cell lines.
(§2) A. Tumor cell lines : A549 (human non-small lung cell)
(§3) • SKOV-3 (human ovarian) • HCT-15 (human colon) • XF-498 (human CNS) • SKMEL-2 (human melanoma)
(§4) • a. Human solid tumor cell lines, A549(non-small lung cell), SKMEL-2(melanoma), HCT-15(colon), SKOV-3(ovarian) and XF-498(CNS) were cultured in 5% CO2 incubators using the RPMI 1640 media containing 10% FBS at 37°C, while with transfer-culturing successively once or twice per week. Cell cultures were dissolved in a solution of 0.25% trysin and 3 mmol CDTA PBS(-) to separate the cells sticked on the culture media. • b. 5× 10^3∼2× 10^4 cells were added into each well of 96-well plate and cultured in 5% CO2 incubator at 37°C for 24 hours. • c. Each sample drug was dissolved in a little DMSO and diluted with the used medium to a prescribed concentration for experiment, while the final concentration of DMSO was adjusted below 0.5%. • d. Medium of each well cultured for 24 hours as above b. was removed by aspiration. Each 200µl of drug samples prepared in c. was added into each well and the wells were cultured for 48 hours. Tz (time zero) plates were collected at the point of time drugs were added. • e. According to the SRB assay method, cell fixing with TCA, staining with 0.4% SRB solution, washing with 1% acetic acid and elution of dye with 10mmol Tris solution were carried out on Tz plates and culture-ended plates, and then, OD values were measured at 520 nm.
(§5) • a. Time zero(Tz) value was determined with measuring the SRB protein value at the point of time drugs were added. • b. Control value (C) was determined with the OD value of an well untreated with drug. • c. Drug-treated test value (T) was determined with the OD value of drug-treated well. • d. Effects of drugs were estimated with growth stimulation, net growth inhibition and net killing calculated from Tz, C and T values. • e. If T ≥ Tz, cellular response function was calculated by 100x(T-Tz)/(C-Tz), and, if T 〈 Tz, by 100× (T-Tz)/Tz.

For data set [1], the system named is A549 (human non-small lung cell). The description is as above. Type of data set: cell-based. The following applies: A 549 cells, 48 hours with drug. As to the method:
as §1, §2, §3, §4, §5

In a further data set the test system is SKOV-3 (human ovarian). The description is as above. Type of data set: cell-based. The following applies: SK-OV-3 cells, 48 hours with drug. Here is the method:
as §1, §2, §3, §4, §5

A further data set relates to SKMEL-2 (human melanoma). The description is as above. Type of data set: cell-based. The following applies: SK-MEL-2 cells, 48 hours with drug. As to the method: as §1, §2, §3, §4, §5
A further data set relates to XF-498 (human CNS). Described as above. Type of data set: cell-based. The following applies: XF-498 cells, 48 hours with drug. As to the method:
as §1, §2, §3, §4, §5

The target of the next data set is Topoisomerase II. As to the kind of experiment: Inhibition of Topoisomerase II activity (DNA relaxation assay / DNA cleavage assay with supercoiled pBR322 DNA). Type of data set: biochemical. To be noted: Topo II, 30 minutes at 37°C, table does not say which of the two assays. As to the method:
Experimental 3 : Inhibition effects against the Topoisomerase II activities
The present compounds were tested for inhibition of Topoisomerase II activity by means of the relaxation assay using supercoiled pBR322 DNA as the substrate. Topo II and a sample inhibitor were added to a reaction system (50mmol Tris-HCl, pH 7.5, 50mmol KCl, 20mmol MgCl2, 0.5mmol EDTA, 2mmol ATP, 60µg/mℓ BSA) containing supercoiled pBR322 DNA and reacted for 30 minutes at 37°C. Then, a quarter by volume of Stop buffer (5% SDS, 50mmol EDTA, 30% glycerol, 0.1mg/mℓ xylene cyanol, 0.1mg/mℓ BPB) was added to the reaction system to stop the reaction. The resulting product went through electrophoresis on 0.7% agarose gel and was stained by ethidium bromide solution. Mobility of DNA was measured under ultraviolet rays.
Topo II and a sample inhibitor were added to cleavage buffer (30mmol Tris-HCl, pH 7.5, 60mmol KCl, 10mmol MgCl2, 15mmol β -mercaptoethanol, 30µg/mℓ BSA) containing supercoiled pBR322 DNA and allowed to react for 30 minutes at 37°C. Then, […] by 1% was added to the reaction system to stop the reaction. Then, proteinase K was added thereto up to the concentration of 50 µg/mℓ and allowed to react for 30 minutes at 56°C. The reaction product was treated with phenol/chloroform to purify DNA, and the obtained DNA was loaded on agarose gel electrophoresis, transferred to nitrocellulose membrane and hybridized with probe DNA labelled with radioisotope. Then, the nitrocellulose membrane was covered with an X-ray film and exposed to be sensitized and developed, whereby the degree of cleavage of DNA was measured.

Data set [2] relates to P388 (mouse lymphoid neoplasma cell). As to the kind of experiment: In vitro antitumor effect against animal leukemia cells, dye exclusion assay (trypan blue). Type of data set: cell-based. To be noted: 48 hours, dye exclusion test using trypan blue, read-out: IC50 (concentration showing 50 % cell growth inhibition). An excerpt:
Experimental 2 : In vitro antitumor effects against animal leukemia cells.
• Tumor cell lines : P388 (mouse lymphoid neoplasma cell)
B. Method : Dye Exclusion Assay.

In the next data set the test system is ICR mice. As to the kind of experiment: Acute toxicity test (LD50), Litchfield-Wilcoxon method. Type of data set: in vivo. To be noted: i.p., ICR mice (male), observed during 14 days.
Assay in data set [3]: as above
The following applies: mouse, in vivo, ICR mice (male), observed during 14 days. Type of data set: in vivo.

Results on 19 molecules are retold here after patent publication EP1380574B1, “9-aminoacridine derivates and process for the preparation thereof” (Samjin Pharmaceutical Co., Ltd., priority 1998, dated 2000).

Values after ≈ are worked out from the molar mass of the structure shown.

The term LD50 denotes the dose expected to kill half of the subjects tested. A high value points to lower toxicity.

As to `N.N.[Cl][Pt][Cl]` [Cisplatin, reference compound], the ED50 in the data set on HCT-15 (human colon) was found to be 3.03 µ g/ml; in data set [1], 0.81 µ g/ml; with SKOV-3 (human ovarian), 0.71 µ g/ml; in the data set with SKMEL-2 (human melanoma), 0.71 µ g/ml; in the data set with XF-498 (human CNS) it was 0.77 µ g/ml.
As for `Nc1cc(COC(=O)Nc2ccccc2)cc(Nc2c3ccccc3nc3ccccc23)c1` [Example 1, [3-(acridin-9-yl)amino-5-amino]benzyl N-phenylcarbamate], the ED50 in the data set on HCT-15 (human colon) worked out at 0.57 µ g/ml; in [1], 0.96 µ g/ml; with SKOV-3 (human ovarian), 1.15 µ g/ml; in the data set with SKMEL-2 (human melanoma) it was 0.49 µ g/ml; in the data set on XF-498 (human CNS), 0.44 µ g/ml. The same molecule yielded an IC50 at Topoisomerase II of 1 µg/mL (≈ 2.3 µM).
`COc1cccc(NC(=O)OCc2cc(N)cc(Nc3c4ccccc4nc4ccccc34)c2)c1` [Example 2, [3-(acridin-9-yl)amino-5-amino]benzyl N-(3-methoxyphenyl)carbamate]: the ED50 with HCT-15 (human colon) stood at 0.97 µ g/ml; in data set [1], 1.12 µ g/ml; in the data set on SKOV-3 (human ovarian), 0.68 µ g/ml; in the data set on SKMEL-2 (human melanoma), 1.08 µ g/ml; in the data set with XF-498 (human CNS), 0.71 µ g/ml. Moreover, at Topoisomerase II, the IC50 came to 3 µg/mL (≈ 6.46 µM).
With `COc1cc(NC(=O)OCc2cc(N)cc(Nc3c4ccccc4nc4ccccc34)c2)cc(OC)c1` [Example 3, [3-(acridin-9-yl)amino-5-amino]benzyl N-(3,5-dimethoxyphenyl)carbamate], the IC50 was determined as 3 µg/mL (≈ 6.07 µM) at Topoisomerase II and 1.1 µg/mL (≈ 2.22 µM) in [2].
On to `COc1cc(NC(=O)OCc2cc(N)cc(Nc3c4ccccc4nc4ccccc34)c2)cc(OC)c1OC` [Example 4, [3-(acridin-9-yl)amino-5-amino]benzyl N-(3,4,5-trimethoxyphenyl)carbamate], for which the ED50 in the data set on HCT-15 (human colon) stood at 0.24 µ g/ml; in [1] it was 0.19 µ g/ml; with SKOV-3 (human ovarian) it was 0.19 µ g/ml; with SKMEL-2 (human melanoma), 0.20 µ g/ml; in the data set on XF-498 (human CNS), 0.23 µ g/ml. The molecule further displayed an IC50 at Topoisomerase II of 5 µg/mL (≈ 9.53 µM).
`Cc1cc(C)cc(NC(=O)OCc2cc(N)cc(Nc3c4ccccc4nc4ccccc34)c2)c1` [Example 6, [3-(acridin-9-yl)amino-5-amino]benzyl N-(3,5-dimethylphenyl)carbamate]: the ED50 in the data set with HCT-15 (human colon) is on record as 0.33 µ g/ml; in [1], 0.72 µ g/ml; with SKOV-3 (human ovarian) it was 0.36 µ g/ml; in the data set with SKMEL-2 (human melanoma), 0.40 µ g/ml; with XF-498 (human CNS) it was 0.37 µ g/ml. Also, at Topoisomerase II, the IC50 was 3 µg/mL (≈ 6.49 µM).
On Topoisomerase II, `Nc1cc(COC(=O)Nc2cc(F)cc(F)c2)cc(Nc2c3ccccc3nc3ccccc23)c1` [Example 12, [3-(acridin-9-yl)amino-5-amino]benzyl N-(3,5-difluorophenyl)carbamate] came in with an IC50 of 0.5 µg/mL (≈ 1.06 µM). The LD50 with ICR mice was 150 mg/kg.
In the case of `Nc1cc(COC(=O)Nc2cccc(Cl)c2)cc(Nc2c3ccccc3nc3ccccc23)c1` [Example 14, [3-(acridin-9-yl)amino-5-amino]benzyl N-(3-chlorophenyl)carbamate], the IC50 (at Topoisomerase II; in data set [2]) was 1 µg/mL (≈ 2.13 µM) in each case.
On to `COc1cc(NC(=S)OCc2cc(N)cc(Nc3c4ccccc4nc4ccccc34)c2)cc(OC)c1` [Example 18, [3-(acridin-9-yl)amino-5-amino]benzyl N-(3,5-dimethoxyphenyl)thiocarbamate], for which the IC50 came to 3 µg/mL (≈ 5.88 µM) on Topoisomerase II and 0.7 µg/mL (≈ 1.37 µM) in [2].
For the molecule `COc1cc(NC(=S)OCc2cc(N)cc(Nc3c4ccccc4nc4ccccc34)c2)cc(OC)c1OC` [Example 19, [3-(acridin-9-yl)amino-5-amino]benzyl N-(3,4,5-trimethoxyphenyl)thiocarbamate], the IC50 against Topoisomerase II came to 5 µg/mL (≈ 9.25 µM).
With `COc1cccc(NC(=O)OCc2cccc(Nc3c4ccccc4nc4ccccc34)c2)c1` [Example 20, 3-(acridin-9-yl)aminobenzyl N-(3-methoxyphenyl)carbamate], on Topoisomerase II, the IC50 was 3 µg/mL (≈ 6.67 µM).
On Topoisomerase II, `COc1cc(NC(=O)OCc2cccc(Nc3c4ccccc4nc4ccccc34)c2)cc(OC)c1` [Example 21, 3-(acridin-9-yl)aminobenzyl N-(3,5-dimethoxyphenyl)carbamate] returned an IC50 of 3 µg/mL (≈ 6.26 µM).
The same measure, in the same setting: then `COc1cc(NC(=O)OCc2cccc(Nc3c4ccccc4nc4ccccc34)c2)cc(OC)c1OC` [Example 22, 3-(acridin-9-yl)aminobenzyl N-(3,4,5-trimethoxyphenyl)carbamate], with 5 µg/mL (≈ 9.81 µM).
The same measure, in the same setting: under `CC=Nc1cc(CO)cc(Nc2c3ccccc3nc3ccccc23)c1` [Example 35, 3-(acridin-9-yl)amino-5-(ethylideneamino)phenylmethanol] stands 5 µg/mL (≈ 14.6 µM); under `CCC=Nc1cc(CO)cc(Nc2c3ccccc3nc3ccccc23)c1` [Example 36, 3-(acridin-9-yl)amino-5-(propylideneamino)phenylmethanol], 3 µg/mL (≈ 8.44 µM).
Consider `CCCC=Nc1cc(CO)cc(Nc2c3ccccc3nc3ccccc23)c1` [Example 37, 3-(acridin-9-yl)amino-5-(butylideneamino)phenylmethanol], for which the ED50 amounted to 0.35 µ g/ml in the data set with HCT-15 (human colon); 0.90 µ g/ml in [1]; 0.93 µ g/ml with SKOV-3 (human ovarian); 0.89 µ g/ml with SKMEL-2 (human melanoma); 0.36 µ g/ml in the data set on XF-498 (human CNS). Also, at Topoisomerase II, the IC50 came to 5 µg/mL (≈ 13.5 µM).
On to `NCC(=O)Nc1cc(CO)cc(Nc2c3ccccc3nc3ccccc23)c1` [Example 44, N-[3-(acridin-9-yl)amino-5-(hydroxymethyl)phenyl] aminoethaneamide], for which the figures for the IC50 (at Topoisomerase II; in data set [2]) were 3 µg/mL (≈ 8.06 µM) and 0.1 µg/mL (≈ 0.269 µM), respectively.
For `C[C@H](N)C(=O)Nc1cc(CO)cc(Nc2c3ccccc3nc3ccccc23)c1` [Example 45, N-[3-(acridin-9-yl)amino-5-(hydroxymethyl)phenyl] (2S)-2-aminopropaneamide], the ED50 with HCT-15 (human colon) was determined as 0.86 µ g/ml; in [1], 0.01 µ g/ml; in the data set with SKOV-3 (human ovarian) it was 0.21 µ g/ml; in the data set on SKMEL-2 (human melanoma) it was 0.25 µ g/ml; in the data set with XF-498 (human CNS), 0.88 µ g/ml. Further, the IC50 on Topoisomerase II was found to be 0.5 µg/mL (≈ 1.29 µM); in data set [2], 0.05 µg/mL (≈ 0.129 µM). Further, the LD50 at 14 days in data set [3] (ip) was found to be 730 mg/kg; in [3] (iv) it was 133 mg/kg.
Take `N[C@@H](Cc1ccccc1)C(=O)Nc1cc(CO)cc(Nc2c3ccccc3nc3ccccc23)c1` [Example 46, N-[3-(acridin-9-yl)amino-5-(hydroxymethyl)phenyl] (2S)-2-amino-3-phenylpropaneamide]: the IC50 was determined as 3 µg/mL (≈ 6.49 µM) on Topoisomerase II and 0.1 µg/mL (≈ 0.216 µM) in data set [2].
